Holding throughout (type): cell-based, Escherichia coli
In one assay the test system is E. coli NK5819 (gyrA−). Nature of the assay: Disc diffusion, zone of inhibition. Particulars: 250 μg/disc, Luria agar. The protocol: (§1) To ascertain the involvement of gyrA mutation, another E.coli strain NK 5819 which is also GyrA″ and nalidixic acid resistant was tested for arteether sensitivity. As expected, strain NK5819 was also sensitive only to a-isomer of arteether. […] The assays for arteether sensitivity was performed by the standard single disk diffusion method (Bauer et al, 1966). As a next step, we isolated gyrA mutants of E.coli strain CA 8000, which is otherwise Gyr+ and nalidixic acid sensitive. The gyrA mutants of CA8000 were isolated as nalidixic acid resistant colonies (20 ug/ml), after mutagenic treatment with NTG ([…]). The isolated CA8000 gyrA mutants were also sensitive only to a isomer of arteether. […] To define precisely the involvement of gyr genes only in the a-arteether sensitivity, we utilised two recombinant clones (pMK 90 and pMK47 containing functional gyr A and gyrB genes respectively) in trans-complementation assays. For this purpose, we mobilized the plasmid clones into the E.coli gyr mutant strains. The resulting transformants were now nalidixic acid sensitive and a-arteether resistant. This constituted the direct evidence supporting our observation that DNA gyrase enzyme alone is involved in conferring a-arteether sensitivity to E.coli strain. […] DNA gyrase enzyme is essential for the bacterial growth. This enzyme transiently breaks the DNA strands and introduces negative superhelical turns in an ATP-dependent process. The E.coli DNA gyrase enzyme is a tetramer with two subunits A and B. These two subunits are nalidixic acid and coumermycin sensitive respectively (U.S. Pat. No. 6,127,405 and a co-pending patent).
(§2) The strains of E coli mutants were grown on Luria agar medium and beta-arteether (250 μg/disc) was applied on disc. The clear zone around the disc killing the bacteria is called Zone of Inhibition (ZOI). This is the measure of sensitivity of the strain towards the compound […].
(A growth-free zone around the sample is the usual read-out of agar diffusion tests.)

The subject of another assay is E. coli ET8000 (gyrA−). Nature of the assay: Disc diffusion, zone of inhibition. Particulars: 250 μg/disc, Luria agar. The protocol:
as §1, §2

In a further assay the test system is E. coli DH5 α (gyrA−). Nature of the assay: Disc diffusion, zone of inhibition. The settings on record: 250 μg/disc, Luria agar. Here is the method: as §1, §2
The next assay concerns E. coli mutant CA8002. Nature of the assay: Disc diffusion, zone of inhibition. Particulars: 250 μg/disc, Luria agar. The protocol:
as §1
(§3) In order to develop an arteether resistant mutants from an arteether sensitive strains a reverse strategy was applied. Quinoline/fluoroquinolone (Q/FQs) resistant strains were developed spontaneously i.e. screening overnight log phase culture of the Quinolone/fluoroquinolone sensitive i.e. arteether resistant strain (E coli CA 8000) on the poison agar plate of the Q/FQs. The Q/FQ resistant mutants which appeared on the poison agar plates were first purified through single colony purification and then checked for their arteether sensitivity. These arteether sensitive mutants on the contrary when checked for their Q/Fqs resistance they show different level of Q/FQs resistance.
as §2

The subject of the next assay is E. coli mutant CA8009. Nature of the assay: Disc diffusion, zone of inhibition. The settings on record: 250 μg/disc, Luria agar. Here is the method:
as §1, §3, §2

Another assay has as its system E. coli mutant CA8012. Nature of the assay: Disc diffusion, zone of inhibition. The settings on record: 250 μg/disc, Luria agar. Here is the method: as §1, §3, §2
In another assay the test system is E. coli mutant CA8007. Nature of the assay: Disc diffusion, zone of inhibition. Particulars: 250 μg/disc, Luria agar. Here is the method:
as §1, §3, §2

A further assay concerns E. coli mutant CA8003. Nature of the assay: Disc diffusion, zone of inhibition. The settings on record: 250 μg/disc, Luria agar. Here is the method:
as §1, §3, §2

The subject of another assay is E. coli mutant CA8010. Nature of the assay: Disc diffusion, zone of inhibition. The settings on record: 250 μg/disc, Luria agar. Here is the method: as §1, §3, §2
The subject of the next assay is E. coli mutant CA8006. Nature of the assay: Disc diffusion, zone of inhibition. The settings on record: 250 μg/disc, Luria agar. The protocol: as §1, §3, §2
The test system of the next assay is E. coli mutant CA8001. Nature of the assay: Disc diffusion, zone of inhibition. The settings on record: 250 μg/disc, Luria agar. Here is the method: as §1, §3, §2
For assay [1], the system named is gyr mutant strains of E.coli. Nature of the assay: Arteether sensitivity of gyr mutants. The settings on record: gyr mutants DH5a, NK5819, MTCC 482, CA8000 gyrA mutants. The protocol:
as §1, with “This enzyme transiently breaks the DNA strands and introduces negative superhelical turns in an ATP-dependent process. The E.coli DNA gyrase enzyme is a tetramer with two subunits A and B. These two subunits are nalidixic acid and coumermycin sensitive respectively (U.S. Pat. No. 6,127,405 and a co-pending patent).” left out

Molecules are shown by their SMILES.

From US7510836B2, “Alpha arteether resistance domain” (priority 2003, dated 2009) come the findings set out here.

In the case of `CCO[C@H]1O[C@@H]2O[C@@]3(C)CC[C@H]4[C@H](C)CC[C@@H]([C@H]1C)[C@@]24OO3` [beta-arteether], the “Net ZOI in mm” value in the assay with E. coli NK5819 (gyrA−) was 7 mm; in the assay on E. coli ET8000 (gyrA−), 5 mm; in the assay with E. coli DH5 α (gyrA−), 5 mm; in the assay with E. coli mutant CA8002, 5 mm; in the assay on E. coli mutant CA8009, 14 mm; in the assay on E. coli mutant CA8012, 8 mm. For the same compound, the “Net ZOI in mm” value came to 8 mm in the assay on E. coli mutant CA8007; 9 mm with E. coli mutant CA8003; 10 mm in the assay with E. coli mutant CA8010; 11 mm in the assay with E. coli mutant CA8006; 10 mm in the assay with E. coli mutant CA8001. Moreover, the “Sensitivity” value in assay [1] was “none of the above described gyr mutants were sensitive”.
